Laboratory results published in US4966962A, “Reverse analogue of actinomycin D” (Trustees of Boston University, priority 1988, dated 1990).
Like-named read-outs stand apart in the source and are kept apart here. *1 amine or outer side, *2 acyl side, *3 side chain or, on linkers, in order; H or OH if unused. Where a SMILES comes first, the peptide text is derived from it. Bridges are numbered along the chain shown (N, C = ends). Roman numbers before positions name the chains, in order. [ ]: non-standard residue; d: D form. Actinocin(9to1) = Cc1c2oc3c(C)ccc(C(=O)[*:1])c3nc-2c(C(=O)[*:2])c(N)c1=O; NMeV = CN[C@H](C(=O)O)C(C)C; Sar = CNCC(=O)O

Experiments:
rat liver microsomes [1] = test: Stimulation of NADPH oxidation by rat hepatic microsomal incubations; format: biochemical; conditions: for percentage stimulation of NADPH oxidation: (drug-stimulated rate - basal rate)/basal rate × 100; for NADPH oxidation: measured at 340 nm, average ± standard error of triplicate
Text: It has been reported that the quinone imino chromophore of actinomycin can be subjected to enzyme-catalyzed single-electron reduction to give free-radical species that generate superoxides by reacting with molecular oxygen. The process needs a reductive cofactor NADPH, which is oxidized to NADP^+ during the process, giving a change in the absorbance at 340 nm that can be measured spectrophotometerically. Alternatively, the superoxides generated during the process may be allowed to react with epinephrine to produce adrenochrome, a chromophore with strong absorbance at 480 nm that can be measured spectrophotmetrically.
The superoxide formations were studied via NADPH oxidation catalyzed by AMD analogues in the presence of rat liver microsomes. […] The process of adrenochrome formation is inhibited by superoxide dismutase, confirming that superoxide is indeed generated in these systems.
^a The percentage stimulation = (drugstimulated rate basal rate)/basa
rate × 100 and is shown in parentheses. NADPH oxidation was measure
at 340 nm and adrenochrome formation was measured at 489 nm; the values
are average ± standard errors of triplicate analyses. ^b SOD,

[2] = Metabolism in tumor cell homogenate (T); format: in vitro ADME, murine; conditions: P388 homogenate (T), 37° C., 16 h
Method: (§1) In this respect, actinomycin is only about 30% as efficient as its synthetic analogues, RAD III (3c) and SAD (2) (Table II). Metabolic Studies, Metabolism in the Presence of Tumor Cell Homogenates and Rat Liver Microsomes. The cell homogenates (P388 cells were sonicated and were incubated at 37° C. with analogues for 16 h. Rat microsomes were harvested from phenobarbital-induced rats by standard procedure. Incubations were carried out for 6 h in the presence of a NADPH-generating system, i.e., glucose-6-phosphate dehydrogenase and glucose 6-phosphate. The metabolites and their water-soluble conjugates were isolated and identified with the use of tritiated analogues.
(§2) It was observed that the RAD analogues are metabolized to SAD (2) with the loss of oxazole ring. […] In tumor cells, a larger fraction of SAD (2) (30-50%) remains unmetabolized. SAD is found to form glucuronide and sulfate conjugates only in tumor cells. […] Isolation of SAD from RAD analogues is a very important step, because SAD is found to be a potent and effective antitumor agent in several murine tumor systems (Tables V-XII).

rat liver microsomes [3] = test: Metabolism in rat liver microsomes (M); format: in vitro ADME; conditions: 6 h, NADPH-generating system
Method: as §1, §2

[4] = test system: human colon carcinoma HT-29 cell line; test: Cell viability by soft agar cloning; format: cell-based; conditions: 2 h treatment at 37° C., from plot of concentration vs colony formation
Method: Furthermore, the activity of the analogues against a human colon carcinoma HT-29 cell line in culture was evaluated. After the cells were treated for 2 h with 0.01-10.0 uM of the drugs at 37° C., the cells were washed with ice-cold PBS (phosphate buffered saline), and the cell viability was assessed by soft agar cloning. Cells viability was expressed as the percentage of colonies from the drug-treated cells relative to control cells after correcting for the cloning efficiency, which ranged from 60% to 80%.

[5] = test system: human colon carcinoma HT-29; test: Inhibition of nucleic acid synthesis in HT-29 cells in vitro; format: cell-based; conditions: 2-h exposure
Text: In addition to the P388 cells, this inhibitory activity in human carcinoma HT-29 grown in tissue culture has been also examined. The values of the drug concentration producing 50% inhibition of the incorporation of [^3 H]-thymidine and [^14 C] uridine into nucleic acid macromolecules are presented in Table V. These values are taken as estimates of the inhibition of DNA and RNA synthesis. […] Furthermore, the inhibitory activities of these analogues are three-to fivefold higher than AMD; the order of potency of the analogues for their inhibition of DNA synthesis is:
DNA and RNA synthesis in P388 and HT-29 cells lines was monitored in the presence of drugs, and the rates of inhibition of their synthesis were estimated from the amounts of [2-^14 C]-uridine and [^3 H]-thymidine into RNA and DNA, respectively, according to the methods described previously.
In brief, for HT-29 colon carcinoma monolayer cells, 10^4 cells in each of five wells per concentration, were incubated with radiolabelec nucleosides ([…] each) for the last hour of a 2-h drug exposure, following which the cells were aspirated and washed with buffered medium. Cells were trypsinized and counted in the Coulter counter. The cell suspensions were then precipitated onto glass fiber filter discs (Whatman 934H), with 10% trichloracetic acid and twice with 95% ethanol and dried, and the incorporation of radionucleotides was estimated.
In addition, to investigate the cross contamination of radioactivity from [2^14 C] uridine, the cells were lysed with ice-cold 1% Triton X for 2.5 min. Macromolecules were precipitated with the addition of 10% perchloric acid (5% in the medium) and centrifuged; the pellet in 1% NaCl was treated with an equal volume of phenol reagent, the emulsion was centrifuged at 10000 g for 30 min at 4° C., and the separated layer was adjusted to 1% NaCl and treated with an equal volume of 2-ethoxyethanol to precipitate the nucleic acids. The precipitate was washed with 75% ethanol and dissolved in an aqueous solution containing 2% sodium acetate and 1.5% NaCl. An aliquot was used for estimation of the total radionucleotide incorporation. Ribonuclease, previously heated to 80° C. for 10 min to destroy deoxyribonuclease activity, was added, and the mixture was incubated at 37° C. for 30 min.
^a Human colon carcinoma in culture, IC50, drug concentration
producing a 50% inhibition of incorporation of precursor [^3 H]
thymidine into DNA and [^14 C] uridine into RNA in the cell lines,
isolated as acid preciptable materials. Data are average of replicate

[6] = test system: P388/S (adriamycin sensitive) leukemia; test: Antitumor activity in vivo, P388/S leukemia; set-up: species or system mice; conditions: for tumor free survivors/total on day 60: P388/S, at optimal dose, ip days 1, 5, 9; for effectiveness relative to AMD with respect to %ILS and long-time survivors: P388 lymphocytic leukemia in mice
Method: The analogues were tested for their antitumor activities in P388 lymphocytic leukemia in male BDF1 mice.
^a Male CDF1 mic inoculated ip: 10^6 cells inoculum, day 0.
Drugs administered in 10% dimethyl sulfoxidesaline on days 1, 5, and 9. %
ILS = percent increase in life span. Fractions in parentheses = tumor fre
survivors/total on day 60^b. P388/S (adriamycin sensitive) and
P388/ADR (adriamycin resistant) tumors were evaluated in the same
experiment with agent listed.

P388 Leukemia = test: Minimum effective dose in P388 tumor bearing mice; format: in vivo; conditions: for therapeutic index MTD/MED: MTD in normal BDF1 mice / MED in P388 tumor bearing mice; for MED (minimum effective dose), dose giving 45% increase in life span over control: ip once on days 1, 5, and 9, from plotted log-dose response data
Text: ^a Drugs administered ip once on days 1, 5, and 9 starting 1 day afte
tumor implantation. Determinations were made from analysis of plotted
logdose response data. ^b MED (minimum effective dose) is the dose
(milligram/killogram) providing an increase in life span of 45% over

[7] = [3H]thymidine incorporation, read-out: IC50, DNA synth
[8] = [14C]uridine incorporation, read-out: IC50, RNA synth

Row | SMILES | percentage stimulation of NADPH oxidation (rat liver microsomes [1]) [%] | NADPH oxidation (rat liver microsomes [1]) | percent isolated: tissue bound [2] [%] | percent isolated: unidentified metabolite [2] [%] | percent metabolite isolated: SAD-glucuronide and/or sulfate [2] [%] | percent metabolite isolated: protein conjugates [2] [%] | percent unconverted drug [2] | percent isolated: tissue bound (rat liver microsomes [3]) [%] | percent isolated: unidentified metabolite (rat liver microsomes [3]) [%] | percent metabolite isolated: SAD-glucuronide and/or sulfate (rat liver microsomes [3]) | percent metabolite isolated: protein conjugates (rat liver microsomes [3]) [%] | percent unconverted drug (rat liver microsomes [3]) [%] | LD90, drug concentration producing 90% reduction in cell viability [4] [µM] | IC50 [5, 7] [nM] | IC50 [5, 8] [nM] | tumor free survivors/total on day 60 [6] | effectiveness relative to AMD with respect to %ILS and long-time survivors [6] | therapeutic index MTD/MED (P388 Leukemia) | MED (minimum effective dose), dose giving 45% increase in life span over control (P388 Leukemia) [milligram/killogram] | other results
1 | Cc1c2oc3c(C)c(O)c(N)c(C(=O)N[C@@H]4C(=O)N[C@H](C(C)C)C(=O)N5CCC[C@H]5C(=O)N(C)CC(=O)N(C)[C@@H](C(C)C)C(=O)O[C@@H]4C)c3nc-2c(C(=O)N[C@@H]2C(=O)N[C@H](C(C)C)C(=O)N3CCC[C@H]3C(=O)N(C)CC(=O)N(C)[C@@H](C(C)C)C(=O)O[C@@H]2C)c(N)c1=O [SAD (2)] | 606 | 64.3 ± 2.11 nmol/min per mg of protein | 7.5 ± 1.0 | 10.0 ± 1.0 | 47.0 ± 6.5 | 5.5 ± 1.5 | 30-50% | 15.0 ± 3.0 | 15.0 ± 4.0 | nil | 20.0 ± 5.0 | 50.0 ± 10.5 | 0.1 | 70 ± 11 | 55 ± 6 | 4/8 | two-to threefold | 96 | 0.025 | percent unconverted drug ([2]; listed as SAD(2)): 30.0 ± 3.0%
2 | Cc1c2oc3c(C)ccc(C(=O)N[C@@H]4C(=O)N[C@H](C(C)C)C(=O)N5CCC[C@H]5C(=O)N(C)CC(=O)N(C)[C@@H](C(C)C)C(=O)O[C@@H]4C)c3nc-2c(C(=O)N[C@@H]2C(=O)N[C@H](C(C)C)C(=O)N3CCC[C@H]3C(=O)N(C)CC(=O)N(C)[C@@H](C(C)C)C(=O)O[C@@H]2C)c(N)c1=O [AMD (1), Actinomycin D] (I: T[dV]P[Sar][NMeV] / II: T[dV]P[Sar][NMeV]; ester I:1-I:C, II:1-II:C; linker I:N-II:N via Actinocin(9to1)) | 9.9 | 10.01 ± 0.90 nmol/min per mg of protein |  |  |  |  | 100% |  |  |  |  | 100 |  | 900 ± 80 | 100 ± 11 | 1/8 |  | 4 | 0.0625 | 
3 | Cc1c2oc3c(C)c4oc(CC(=O)NCCCCN)nc4c(C(=O)N[C@@H]4C(=O)N[C@H](C(C)C)C(=O)N5CCC[C@H]5C(=O)N(C)CC(=O)N(C)[C@@H](C(C)C)C(=O)O[C@@H]4C)c3nc-2c(C(=O)N[C@@H]2C(=O)N[C@H](C(C)C)C(=O)N3CCC[C@H]3C(=O)N(C)CC(=O)N(C)[C@@H](C(C)C)C(=O)O[C@@H]2C)c(N)c1=O [RAD III (3c)] | 812 | 87.1 ± 7.1 nmol/min per mg of protein | 5.0 ± 1.0 | 5.0 ± 2.0 | 40.0 ± 5.5 | 8.0 ± 2.0 | 20.0 ± 2.5% | 5.0 ± 0.5 | 8.0 ± 1.0 | nil | 10.0 ± 10 | 10.0 ± 1.0 | 5.0 | 365 ± 45 | 45 ± 8 | 6/8 | two-to threefold | 70 | 0.05 | percent metabolite isolated: SAD [2]: 20.0 ± 2.0%; percent metabolite isolated: SAD (rat liver microsomes [3]): 65.0 ± 5.5%; P388/S optimal dose ([6]; ip on days 1, 5, and 9): 1.0 mg/kg
4 | Cc1c2oc3c(C)c4oc(-c5ccccc5)nc4c(C(=O)N[C@@H]4C(=O)N[C@H](C(C)C)C(=O)N5CCC[C@H]5C(=O)N(C)CC(=O)N(C)[C@@H](C(C)C)C(=O)O[C@@H]4C)c3nc-2c(C(=O)N[C@@H]2C(=O)N[C@H](C(C)C)C(=O)N3CCC[C@H]3C(=O)N(C)CC(=O)N(C)[C@@H](C(C)C)C(=O)O[C@@H]2C)c(N)c1=O [RAD II (3b)] | 610 | 65.0 ± 5.95 nmol/min per mg of protein |  |  |  |  |  |  |  |  |  |  | 0.2 | 580 ± 55 | 68 ± 10 | 4/8 | two-to threefold | 67 | 0.03 | 
